Melting point data for 40 compounds are collected here from patent US20050080113A1, “Medicinal compositions” (priority 2001, published 2005).

The melting point is the temperature of the solid-liquid transition. Take `CC(=O)Nc1cc(-c2sc(C)nc2-c2cccc(C)c2)ccn1` [H 82-10, N-[4 [2 methyl-4 (3-methylphenyl)-1,3 thiazol-5 yl]-2 pyridyl]acetamide]: the melting point fell in the range of 162 to 163 °C.
As for `CC(=O)Nc1cc(-c2scnc2-c2cccc(C)c2)ccn1` [H 82-11, N-[4 [4 (3 methylphenyl)-1,3 thiazol-5 yl]-2 pyridyl]acetamide], the melting point lay within 149 to 150 °C.
On to `CSc1ccc(-c2nc(-c3cccc(C)c3)c(-c3ccnc(NC(C)=O)c3)s2)cc1` [H 82-12, N-[4 [4 (3 methylphenyl)-2 [4 (methylthio)phenyl]-1,3 thiazol-5 yl]-2 pyridyl]acetamide], for which the melting point lay within 181 to 182 °C.
`CCC(=O)Nc1cc(-c2sc(CC)nc2-c2ccccc2)ccn1` [H 84-1, N-[4 (2 ethyl-4 phenyl-1,3-thiazol-5 yl)-2 pyridyl]propionamide] yielded a melting point of 139 to 140 °C.
`CCC(=O)Nc1cc(-c2sc(CC)nc2-c2ccc(F)cc2)ccn1` [H 84-2, N-[4 [2 ethyl-4 (4-fluorophenyl)-1,3 thiazol-5 yl]-2 pyridyl]propionamide] yielded a melting point of 156 to 157 °C.
Compound `CCC(=O)Nc1cc(-c2sc(CC)nc2-c2cccc(C(F)(F)F)c2)ccn1` [H 84-3, N-[4 [2 ethyl-4 (3-trifluoromethylphenyl)-1,3 thiazol-5 yl]-2 pyridyl]propionamide] yielded a melting point of 126 to 127 °C.
For `CCC(=O)Nc1cc(-c2sc(CC)nc2-c2ccc(F)c(C)c2)ccn1` [H 84-4, N-[4 [2 ethyl-4 (4 fluoro-3 methylphenyl)-1,3 thiazol-5 yl]-2 pyridyl]propionamide] the value was 105 to 107 °C; for `CCC(=O)Nc1cc(-c2sc(CC)nc2-c2cccc(F)c2)ccn1` [H 84-5, N-[4 [2 ethyl-4 (3-fluorophenyl)-1,3 thiazol-5 yl]-2 pyridyl]propionamide], 121 to 122 °C; for `CCC(=O)Nc1cc(-c2sc(CC)nc2-c2ccc(Cl)cc2)ccn1` [H 84-6, N-[4 [4 (4 chlorophenyl)-2-ethyl-1,3 thiazol-5 yl]-2 pyridyl]propionamide], 152 to 153 °C.
Consider `CCC(=O)Nc1cc(-c2sc(CC)nc2-c2cccc(C(C)C)c2)ccn1` [H 84-7, N-[4 [2 ethyl-4 [3 (1-methylethyl)phenyl]-1,3 thiazol-5 yl]-2 pyridyl]propionamide], for which the melting point was 93 to 94 °C.
For `CCCc1cccc(-c2nc(CC)sc2-c2ccnc(NC(=O)CC)c2)c1` [H 84-8, N-[4 [2 ethyl-4 (3-propylphenyl)-1,3 thiazol-5 yl]-2 pyridyl]propionamide] the value was 124 to 125 °C; for `CCCC(=O)Nc1cc(-c2sc(CC)nc2-c2cccc(Cl)c2)ccn1` [H 86, N-[4 [4 (3 chlorophenyl)-2-ethyl-1,3 thiazol-5 yl]-2 pyridyl]butyramide], 119 to 120 °C.
With `CCCCC(=O)Nc1cc(-c2sc(CC)nc2-c2cccc(C)c2)ccn1` [H 87-1, N-[4 [2 ethyl-4 (3-methylphenyl)-1,3 thiazol-5 yl]-2 pyridyl]valeramide], the melting point was 81 to 82 °C.
As for `CCCCCC(=O)Nc1cc(-c2sc(CC)nc2-c2cccc(C)c2)ccn1` [H 87-2, N-[4 [2 ethyl-4 (3-methylphenyl)-1,3 thiazol-5 yl]-2 pyridyl]hexanamide], the melting point was in the range of 84 to 85 °C.
With `CCCCC(=O)Nc1cc(-c2sc(CC)nc2-c2cccc(Cl)c2)ccn1` [H 88-1, N-[4 [4 (3 chlorophenyl)-2-ethyl-1,3 thiazol-5 yl]-2 pyridyl]valeramide] the figure was 109 to 110 °C.
With `CCCCCC(=O)Nc1cc(-c2sc(CC)nc2-c2cccc(Cl)c2)ccn1` [H 88-2, N-[4 [4 (3 chlorophenyl)-2-ethyl-1,3 thiazol-5 yl]-2 pyridyl]hexanamide] the figure was 114 to 115 °C; with `CCc1nc(-c2cccc(C)c2)c(-c2ccnc(NC(=O)CC3CCCC3)c2)s1` [H 89, N-[4 [2 ethyl-4 (3-methylphenyl)-1,3 thiazol-5 yl]-2 pyridyl]cyclopentylacetamide], 85 to 86 °C.
For `CCc1nc(-c2cccc(Cl)c2)c(-c2ccnc(NC(=O)CC3CCCC3)c2)s1` [H 90-1, N-[4 [4 (3 chlorophenyl)-2-ethyl-1,3 thiazol-5 yl]-2 pyridyl]cyclopentylacetamide] the value was 121 to 122 °C; for `CCc1nc(-c2ccc(Cl)cc2)c(-c2ccnc(NC(=O)CC3CCCC3)c2)s1` [H 90-2, N-[4 [4 (4 chlorophenyl)-2-ethyl-1,3 thiazol-5 yl]-2 pyridyl]cyclopentylacetamide], 149 to 150 °C.
In turn, `CC(=O)Nc1cc(-c2sc(C3CCN(C(C)=O)CC3)nc2-c2cccc(Cl)c2)ccn1` [H 93, N-[4 [2 (1 acetylpiperidin-4 yl)-4 (3 chlorophenyl)-1,3-thiazol-5 yl]-2 pyridyl]acetamide] yielded a melting point of 160 to 161 °C.
The compound `CCC(=O)Nc1cc(-c2sc(C3CCN(C(C)=O)CC3)nc2-c2cccc(Cl)c2)ccn1` [H 94, N-[4 [2 (1 acetylpiperidin-4-yl)-4 (3 chlorophenyl)-1,3 thiazol-5 yl]-2-pyridyl]propionamide] had a melting point of 174 to 175 °C.
For the compound `CC(=O)Nc1cc(-c2sc(-c3ccc(S(C)(=O)=O)cc3)nc2-c2cccc(C)c2)ccn1` [H 98-1, N-[4 [4 (3 methylphenyl)-2-(4 methylsulfonylphenyl)-1,3 thiazol-5 yl]-2 pyridyl]acetamide], the melting point was in the range of 222 to 223 °C.
Turning to `CCC(=O)Nc1cc(-c2sc(-c3ccc(S(C)(=O)=O)cc3)nc2-c2cccc(C)c2)ccn1` [H 98-2, N-[4 [4 (3 methylphenyl)-2-(4 methylsulfonylphenyl)-1,3 thiazol-5 yl]-2 pyridyl]propionamide], the melting point fell in the range of 238 to 239 °C.
With `CSCCc1nc(-c2cccc(C)c2)c(-c2ccnc(N)c2)s1` [H 99-1, 4 [4 (3 methylphenyl)-2 [2-(methylthio)ethyl]-1,3 thiazol-5 yl]-2 pyridylamine], the melting point was 98 to 99 °C.
`Cc1cccc(-c2nc(C(C)OC(=O)c3ccccc3)sc2-c2ccnc(N)c2)c1` (stereo not shown) [H 99-2, 1 [5 (2 amino-4 pyridyl)-4-(3 methylphenyl)-1,3 thiazol-2 yl]ethyl benzoate] returned a melting point of 89 to 91 °C.
With `CSCCc1nc(-c2cccc(Cl)c2)c(-c2ccnc(N)c2)s1` [H 100-1, 4 [4 (3 chlorophenyl)-2-[2 (methylthio)ethyl]-1,3 thiazol-5 yl]-2 pyridylamine] the figure was 96 to 97 °C.
For `CSCc1nc(-c2cccc(Cl)c2)c(-c2ccnc(N)c2)s1` [H 101-1, 4 [4 (3 chlorophenyl)-2-(methylthio)methyl-1,3 thiazol-5 yl]-2 pyridylamine] the value was 111 to 112 °C; for `CC(F)(F)c1nc(-c2cccc(Cl)c2)c(-c2ccnc(N)c2)s1` [H 101-2, 4 [4 (3 chlorophenyl)-2-(1,1 difluoroethyl)-1,3 thiazol-5 yl]-2 pyridylamine], 131 to 132 °C; for `CCC(=O)Nc1cc(-c2sc(CCSC)nc2-c2cccc(C)c2)ccn1` [H 102-1, N-[4 [4 (3 methylphenyl)-2 [2 (methylthio)ethyl]-1,3 thiazol-5 yl]-2-pyridyl]propionamide], 85 to 86 °C.
With `CCC(=O)Nc1cc(-c2sc(CCSC)nc2-c2cccc(Cl)c2)ccn1` [H 102-2, N-[4 [4 (3 chlorophenyl)-2 [2 (methylthio)ethyl]-1,3 thiazol-5 yl]-2-pyridyl]propionamide] the figure was 91 to 92 °C; with `CCC(=O)Nc1cc(-c2sc(CSC)nc2-c2cccc(Cl)c2)ccn1` [H 102-3, N-[4 [4 (3 chlorophenyl)-2 (methylthio)methyl-1,3 thiazol-5 yl]-2 pyridyl]propionamide], 118 to 119 °C; with `CCC(=O)Nc1cc(-c2sc(C(C)(F)F)nc2-c2cccc(Cl)c2)ccn1` [H 102-4, N-[4 [4 (3 chlorophenyl)-2 (1,1 difluoroethyl)-1,3 thiazol-5 yl]-2 pyridyl]propionamide], 141 to 142 °C.
Regarding `CCC(=O)Nc1cc(-c2sc(C(C)OC(=O)c3ccccc3)nc2-c2cccc(C)c2)ccn1` (stereo not shown) [H 102-5, 1 [4 (3 methylphenyl)-5-(2 propionylamino-4 pyridyl)-1,3 thiazol-2 yl]ethyl benzoate], the melting point was 102 to 103 °C.
`CCC(=O)Nc1cc(-c2sc(C(C)OC(=O)c3ccccc3)nc2-c2cccc(Cl)c2)ccn1` (stereo not shown) [H 102-6, 1 [4 (3 chlorophenyl)-5-(2 propionylamino-4 pyridyl)-1,3 thiazol-2 yl]ethyl benzoate] displayed a melting point of 124 to 127 °C.
Regarding `CC(=O)Nc1cc(-c2sc(C(C)OC(=O)c3ccccc3)nc2-c2cccc(Cl)c2)ccn1` (stereo not shown) [H 103-1, 1 [5 (2 acetylamino-4-pyridyl)-4 (3 chlorophenyl)-1,3 thiazol-2 yl]ethyl benzoate], the melting point fell in the range of 152 to 154 °C.
`CCOC(=O)Cc1nc(-c2cccc(Cl)c2)c(-c2ccnc(NC(C)=O)c2)s1` [H 103-2, ethyl [5 (2 acetylamino-4-pyridyl)-4 (3 chlorophenyl)-1,3 thiazol-2 yl]acetate] had a melting point of 99 to 100 °C.
Regarding `CCC(=O)Nc1cc(-c2sc(C(C)O)nc2-c2cccc(C)c2)ccn1` (stereo not shown) [H 104, N-[4 [2 (1 hydroxyethyl)-4 (3 methylphenyl)-1,3 thiazol-5 yl]-2 pyridyl]propionamide], the melting point was 115 to 116 °C.
Compound `CCC(=O)Nc1cc(-c2sc(C(C)O)nc2-c2cccc(Cl)c2)ccn1` (stereo not shown) [H 105, N-[4 [4 (3 chlorophenyl)-2-(1 hydroxyethyl)-1,3 thiazol-5 yl]-2 pyridyl]propionamide] returned a melting point of 131 to 132 °C.
For the compound `CCC(=O)Nc1cc(-c2sc(C(C)=O)nc2-c2cccc(C)c2)ccn1` [H 106, N-[4 [2 acetyl-4 (3 methylphenyl)-1,3 thiazol-5 yl]-2-pyridyl]propionamide], the melting point is 121 to 123 °C.
With `CCC(=O)Nc1cc(-c2sc(C(C)=O)nc2-c2cccc(Cl)c2)ccn1` [H 107, N-[4 [2 acetyl-4 (3-chlorophenyl)-1,3 thiazol-5 yl]-2 pyridyl]propionamide], the melting point is 115 to 117 °C.
